# How the values were obtained:
# barnyardgrass [1] = assay: Test A preemergence; type: in vivo, Echinochloa crusgalli; settings: visual injury after 10 days, 0 to 100 scale, 0 is no effect, 100 is complete control
# How it was run: (§1)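 Loam/sand soil; pre-em directed soil spray at planting, post-em spray at 1–2 leaf (2–10 cm). Compound in non-phytotoxic solvent + surfactant. Greenhouse 10 d; visual injury vs untreated, 0 = no effect, 100 = complete control.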
# blackgrass [2] = assay: Test A preemergence; type: in vivo, Alopecurus myosuroides; settings: 0 to 100 scale
# How it was run: as §1
# corn [3] = assay: Test A preemergence; type: in vivo, Zea mays; settings: 0 to 100 scale
# How it was run: as §1
# foxtail, giant [4] = assay: Test A preemergence; type: in vivo, Setaria faberi; settings: 0 to 100 scale
# How it was run: as §1
# kochia [5] = assay: Test A preemergence; type: in vivo, Bassia scoparia; settings: 0 to 100 scale
# How it was run: as §1
# oat, wild [6] = assay: Test A preemergence; type: in vivo, Avena fatua; settings: 0 to 100 scale
# How it was run: as §1
# pigweed, palmer [7] = assay: Test A preemergence; type: in vivo, Amaranthus palmeri; settings: 0 to 100 scale
# How it was run: as §1
# ragweed [8] = assay: Test A preemergence; type: in vivo, Ambrosia artemisiifolia; settings: 0 to 100 scale
# How it was run: as §1
# ryegrass, Italian [9] = assay: Test A preemergence; type: in vivo, Lolium multiflorum; settings: 0 to 100 scale
# How it was run: as §1
# soybean [10] = assay: Test A preemergence; type: in vivo, Glycine max; settings: 0 to 100 scale
# How it was run: as §1
# wheat [11] = assay: Test A preemergence; type: in vivo, Triticum aestivum; settings: 0 to 100 scale
# How it was run: as §1
# barnyardgrass [12] = assay: Test A postemergence; type: in vivo, Echinochloa crusgalli; settings: postemergence, 10 days; for Barnyardgrass plant response rating: 125 g ai/ha, 0 to 100 scale, 0 no effect, 100 complete control; for Plant response rating, Barnyardgrass: 500 g ai/ha, visual injury, 0 to 100 scale (0 no effect, 100 complete control)
# How it was run: as §1
# blackgrass [13] = assay: Test A postemergence; type: in vivo, Alopecurus myosuroides; settings: postemergence, 10 days; for Blackgrass plant response rating: 125 g ai/ha, 0 to 100 scale, 0 no effect, 100 complete control; for Plant response rating, Blackgrass: 500 g ai/ha, visual injury, 0 to 100 scale (0 no effect, 100 complete control)
# How it was run: as §1
# corn [14] = assay: Test A postemergence; type: in vivo, Zea mays; settings: postemergence, 10 days; for Corn plant response rating: 125 g ai/ha, 0 to 100 scale, 0 no effect, 100 complete control; for Plant response rating, Corn: 500 g ai/ha, visual injury, 0 to 100 scale (0 no effect, 100 complete control)
# How it was run: as §1
# foxtail, giant [15] = assay: Test A postemergence; type: in vivo, Setaria faberi; settings: postemergence, 10 days; for Foxtail, Giant plant response rating: 125 g ai/ha, 0 to 100 scale, 0 no effect, 100 complete control; for Plant response rating, Foxtail, Giant: 500 g ai/ha, visual injury, 0 to 100 scale (0 no effect, 100 complete control)
# How it was run: as §1
# kochia [16] = assay: Test A postemergence; type: in vivo, Bassia scoparia; settings: postemergence, 10 days; for Kochia plant response rating: 125 g ai/ha, 0 to 100 scale, 0 no effect, 100 complete control; for Plant response rating, Kochia: 500 g ai/ha, visual injury, 0 to 100 scale (0 no effect, 100 complete control)
# How it was run: as §1
# oat, wild [17] = assay: Test A postemergence; type: in vivo, Avena fatua; settings: postemergence, 10 days; for Oat, Wild plant response rating: 125 g ai/ha, 0 to 100 scale, 0 no effect, 100 complete control; for Plant response rating, Oat, Wild: 500 g ai/ha, visual injury, 0 to 100 scale (0 no effect, 100 complete control)
# How it was run: as §1
# pigweed, palmer [18] = assay: Test A postemergence; type: in vivo, Amaranthus palmeri; settings: postemergence, 10 days; for Pigweed, Palmer plant response rating: 125 g ai/ha, 0 to 100 scale, 0 no effect, 100 complete control; for Plant response rating, Pigweed, Palmer: 500 g ai/ha, visual injury, 0 to 100 scale (0 no effect, 100 complete control)
# How it was run: as §1
# ragweed [19] = assay: Test A postemergence; type: in vivo, Ambrosia artemisiifolia; settings: postemergence, 10 days; for Ragweed plant response rating: 125 g ai/ha, 0 to 100 scale, 0 no effect, 100 complete control; for Plant response rating, Ragweed: 500 g ai/ha, visual injury, 0 to 100 scale (0 no effect, 100 complete control)
# How it was run: as §1
# ryegrass, Italian [20] = assay: Test A postemergence; type: in vivo, Lolium multiflorum; settings: postemergence, 10 days; for Ryegrass, Italian plant response rating: 125 g ai/ha, 0 to 100 scale, 0 no effect, 100 complete control; for Plant response rating, Ryegrass, Italian: 500 g ai/ha, visual injury, 0 to 100 scale (0 no effect, 100 complete control)
# How it was run: as §1
# soybean [21] = assay: Test A postemergence; type: in vivo, Glycine max; settings: postemergence, 10 days; for Soybean plant response rating: 125 g ai/ha, 0 to 100 scale, 0 no effect, 100 complete control; for Plant response rating, Soybean: 500 g ai/ha, visual injury, 0 to 100 scale (0 no effect, 100 complete control)
# How it was run: as §1
# wheat [22] = assay: Test A postemergence; type: in vivo, Triticum aestivum; settings: postemergence, 10 days; for Wheat plant response rating: 125 g ai/ha, 0 to 100 scale, 0 no effect, 100 complete control; for Plant response rating, Wheat: 500 g ai/ha, visual injury, 0 to 100 scale (0 no effect, 100 complete control)
# How it was run: as §1
# galium = assay: Test A postemergence; type: in vivo, Galium aparine; settings: postemergence, 10 days; for Galium plant response rating: 125 g ai/ha, 0 to 100 scale, 0 no effect, 100 complete control; for Plant response rating, Galium: 500 g ai/ha, visual injury, 0 to 100 scale (0 no effect, 100 complete control)
# How it was run: as §1
# horseweed = assay: Test A postemergence; type: in vivo, Erigeron canadensis; settings: postemergence, 10 days; for Horseweed plant response rating: 125 g ai/ha, 0 to 100 scale, 0 no effect, 100 complete control; for Plant response rating, Horseweed: 500 g ai/ha, visual injury, 0 to 100 scale (0 no effect, 100 complete control)
# How it was run: as §1
# barnyardgrass [23] = assay: Test B flooded paddy test; type: in vivo, Echinochloa crus-galli; settings: 250 g ai/ha, Flood, 13 days, 0 to 100 scale (0 no effect, 100 complete control)
# How it was run: (§2)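 Percent weed or crop control, judged by eye on a 0–100 scale 13 days post-treatment, reflects compound added to a 3 cm flood maintained over 2-leaf plants in the greenhouse. Missing entries are marked with a dash.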
# ducksalad = assay: Test B flooded paddy test; type: in vivo, Heteranthera limosa; settings: 250 g ai/ha, Flood, 13 days, 0 to 100 scale (0 no effect, 100 complete control)
# How it was run: as §2
# rice = assay: Test B flooded paddy test; type: in vivo, Oryza sativa; settings: 250 g ai/ha, Flood, 13 days, 0 to 100 scale (0 no effect, 100 complete control)
# How it was run: as §2
# sedge, umbrella = assay: Test B flooded paddy test; type: in vivo, Cyperus difformis; settings: 250 g ai/ha, Flood, 13 days, 0 to 100 scale (0 no effect, 100 complete control)
# How it was run: as §2
# [24] = 500 g ai/ha, visual injury after 10 days, 0 is no effect, 100 is complete control
# [25] = 125 g ai/ha, visual injury after 10 days, 0 is no effect, 100 is complete control
structure (smiles),measurement,setting,value
CC(C)c1ncn(-c2ccc(C#N)c(C(=O)N3C[C@H](C)Oc4c(Cl)cccc43)c2)n1 [Compound 140],"Plant response rating, Barnyardgrass",barnyardgrass [1]; 125 g ai/ha,90
same,"Plant response rating, Barnyardgrass",barnyardgrass [1]; 500 g ai/ha,90
same,"Plant response rating, Blackgrass",blackgrass [2]; 125 g ai/ha,40
same,"Plant response rating, Blackgrass",blackgrass [2]; [24],70
same,"Plant response rating, Corn",corn [3]; 125 g ai/ha,0
same,"Plant response rating, Corn",corn [3]; [24],10
same,"Plant response rating, Foxtail, Giant","foxtail, giant [4]; 125 g ai/ha",90
same,"Plant response rating, Foxtail, Giant","foxtail, giant [4]; [24]",100
same,"Plant response rating, Kochia",kochia [5]; 125 g ai/ha,80
same,"Plant response rating, Kochia",kochia [5]; [24],90
same,"Plant response rating, Oat, Wild","oat, wild [6]; 125 g ai/ha",30
same,"Plant response rating, Oat, Wild","oat, wild [6]; [24]",70
same,"Plant response rating, Pigweed, Palmer","pigweed, palmer [7]; 125 g ai/ha",100
same,"Plant response rating, Pigweed, Palmer","pigweed, palmer [7]; [24]",100
same,"Plant response rating, Ragweed",ragweed [8]; 125 g ai/ha,0
same,"Plant response rating, Ragweed",ragweed [8]; [24],30
same,"Plant response rating, Ryegrass, Italian","ryegrass, Italian [9]; 125 g ai/ha",50
same,"Plant response rating, Ryegrass, Italian","ryegrass, Italian [9]; [24]",70
same,"Plant response rating, Soybean",soybean [10]; 125 g ai/ha,50
same,"Plant response rating, Soybean",soybean [10]; [24],100
same,"Plant response rating, Wheat",wheat [11]; 125 g ai/ha,20
same,"Plant response rating, Wheat",wheat [11]; [24],50
same,Barnyardgrass plant response rating,barnyardgrass [12],50
same,"Plant response rating, Barnyardgrass",barnyardgrass [12],70
same,Blackgrass plant response rating,blackgrass [13],70
same,"Plant response rating, Blackgrass",blackgrass [13],80
same,Corn plant response rating,corn [14],70
same,"Plant response rating, Corn",corn [14],90
same,"Foxtail, Giant plant response rating","foxtail, giant [15]",90
same,"Plant response rating, Foxtail, Giant","foxtail, giant [15]",90
same,Kochia plant response rating,kochia [16],90
same,"Plant response rating, Kochia",kochia [16],90
same,"Oat, Wild plant response rating","oat, wild [17]",0
same,"Plant response rating, Oat, Wild","oat, wild [17]",50
same,"Pigweed, Palmer plant response rating","pigweed, palmer [18]",70
same,"Plant response rating, Pigweed, Palmer","pigweed, palmer [18]",90
same,Ragweed plant response rating,ragweed [19],20
same,"Plant response rating, Ragweed",ragweed [19],40
same,"Ryegrass, Italian plant response rating","ryegrass, Italian [20]",40
same,"Plant response rating, Ryegrass, Italian","ryegrass, Italian [20]",50
same,Soybean plant response rating,soybean [21],100
same,"Plant response rating, Soybean",soybean [21],100
same,Wheat plant response rating,wheat [22],30
same,"Plant response rating, Wheat",wheat [22],60
same,Galium plant response rating,galium,70
same,"Plant response rating, Galium",galium,70
same,Horseweed plant response rating,horseweed,0
same,"Plant response rating, Horseweed",horseweed,0
same,"Plant response rating, Barnyardgrass",barnyardgrass [23],20
same,"Plant response rating, Ducksalad",ducksalad,40
same,"Plant response rating, Rice",rice,0
same,"Plant response rating, Sedge, Umbrella","sedge, umbrella",75
C[C@H]1CN(C(=O)c2cc(Br)cc(-n3cncn3)c2)c2cccc(Cl)c2O1 [Compound 114],"Plant response rating, Barnyardgrass",barnyardgrass [1]; 125 g ai/ha,30
same,"Plant response rating, Barnyardgrass",barnyardgrass [1]; 500 g ai/ha,90
same,"Plant response rating, Blackgrass",blackgrass [2]; [25],30
same,"Plant response rating, Blackgrass",blackgrass [2]; [24],70
same,"Plant response rating, Corn",corn [3]; [25],0
same,"Plant response rating, Corn",corn [3]; [24],0
same,"Plant response rating, Foxtail, Giant","foxtail, giant [4]; [25]",80
same,"Plant response rating, Foxtail, Giant","foxtail, giant [4]; [24]",100
same,"Plant response rating, Kochia",kochia [5]; [25],0
same,"Plant response rating, Kochia",kochia [5]; [24],20
same,"Plant response rating, Oat, Wild","oat, wild [6]; [25]",0
same,"Plant response rating, Oat, Wild","oat, wild [6]; [24]",20
same,"Plant response rating, Pigweed, Palmer","pigweed, palmer [7]; [25]",50
same,"Plant response rating, Pigweed, Palmer","pigweed, palmer [7]; [24]",90
same,"Plant response rating, Ragweed",ragweed [8]; [25],0
same,"Plant response rating, Ragweed",ragweed [8]; [24],0
same,"Plant response rating, Ryegrass, Italian","ryegrass, Italian [9]; [25]",50
same,"Plant response rating, Ryegrass, Italian","ryegrass, Italian [9]; [24]",90
same,"Plant response rating, Soybean",soybean [10]; [25],0
same,"Plant response rating, Soybean",soybean [10]; [24],0
same,"Plant response rating, Wheat",wheat [11]; [25],20
same,"Plant response rating, Wheat",wheat [11]; [24],50
same,Barnyardgrass plant response rating,barnyardgrass [12],10
same,"Plant response rating, Barnyardgrass",barnyardgrass [12],70
same,Blackgrass plant response rating,blackgrass [13],50
same,"Plant response rating, Blackgrass",blackgrass [13],90
same,Corn plant response rating,corn [14],50
same,"Plant response rating, Corn",corn [14],80
same,"Foxtail, Giant plant response rating","foxtail, giant [15]",70
same,"Plant response rating, Foxtail, Giant","foxtail, giant [15]",90
same,Kochia plant response rating,kochia [16],40
same,"Plant response rating, Kochia",kochia [16],80
same,"Oat, Wild plant response rating","oat, wild [17]",0
same,"Plant response rating, Oat, Wild","oat, wild [17]",40
same,"Pigweed, Palmer plant response rating","pigweed, palmer [18]",40
same,"Plant response rating, Pigweed, Palmer","pigweed, palmer [18]",100
same,Ragweed plant response rating,ragweed [19],0
same,"Plant response rating, Ragweed",ragweed [19],0
same,"Ryegrass, Italian plant response rating","ryegrass, Italian [20]",50
same,"Plant response rating, Ryegrass, Italian","ryegrass, Italian [20]",70
same,Soybean plant response rating,soybean [21],60
same,"Plant response rating, Soybean",soybean [21],100
same,Wheat plant response rating,wheat [22],10
same,"Plant response rating, Wheat",wheat [22],40
same,Galium plant response rating,galium,60
same,"Plant response rating, Galium",galium,70
same,Horseweed plant response rating,horseweed,0
same,"Plant response rating, Horseweed",horseweed,0
same,"Plant response rating, Barnyardgrass",barnyardgrass [23],0
same,"Plant response rating, Ducksalad",ducksalad,0
same,"Plant response rating, Rice",rice,0
same,"Plant response rating, Sedge, Umbrella","sedge, umbrella",0

# Source: US20260262643A1, “HERBICIDAL BENZOXAZINES” (FMC CORPORATION, priority 2022, published 2026)
